We go through 15 compounds from patent publication US8785478B2, “Viral polymerase inhibitors” (Biota Scientific Management Pty Ltd, priority 2012, dated 2014).

A short description of data set [1]: Cytotoxicity analysis (MTT). The data set is classed as cell-based. The settings on record: genotype 1b replicon cells, three days, read-out: G1b (CC50 μM). As to the method:
Cytotoxicity of compounds against genotype 1b replicon cells was determined via metabolism of the vital dye 3-(4,5-dimethylthiaxol-2-yl)-2,5-diphenyltetrazolium bromide (MTT, for example see Watanabe et al., Journal of Virological Methods 1994 48:257-265). Plates were prepared as described for the HCV Replicon assay and cytotoxicity of the test article was evaluated after three days. MTT was added to assay plates followed by three hour incubation at 37° C. Wells were aspirated to dryness and the formazan dye dissolved by the addition of isopropanol. Absorbance values were read at 540/690 nm). The compound concentration that reduced cell viability by 50% (CC50) was calculated using non-linear regression.
(In antiviral work, replicon cells carry a viral genome segment that copies itself.)

Data set [2] relates to subgenomic genotype 2a (JFH-1) replicon cell line. Kind of data set: HCV replicon assay, genotype 2a (Renilla luciferase). In kind it is cell-based. The settings on record: Hepatitis C virus; genotype 2a replicon; read-out: G2a (EC50 μM). As to the method: (§1) A genotype 1b (Con 1) subgenomic replicon cell line based on Blight et al., Science 2000 290: 1972-1974, modified to express a Renilla luciferase reporter gene was used to assess antiviral activity of test compounds. Cell cultures were maintained in a sub-confluent state in DMEM with glutamine, 10% heat-inactivated foetal bovine serum (FBS) and G418 (Geneticin®).
(§2) For assay, cells were seeded at a density of 7000 cells/well into 96 well tissue culture trays in culture media lacking G418. Compounds were tested in a three fold dilution series, for example starting from 50 uM. After 72 hours incubation at 37° C. and 5% CO2, Renilla luciferase activity was quantified via the Promega Renilla Luciferase or Renilla-Glo™ Luciferase Assay Systems (Promega corporation. The same method was employed for replicon assays using subgenomic genotype 1a (H77) and 2a (JFH-1) replicon cell lines with a seeding cell density of 5000 cells/well for the 2a cell lines.
(§3) The compound concentration that reduced luciferase activity by 50% (EC50) was calculated using non-linear regression.

The test system of data set [3] is genotype 1b (Con 1) subgenomic replicon cell line. Kind of data set: HCV replicon assay, genotype 1b (Renilla luciferase). The data set is classed as cell-based. The settings on record: Hepatitis C virus, genotype 1b replicon. As to the method: as §1, §2, §3
For the next data set, the target named is T1, 1b (BK) NS5BΔ21 (Hepatitis C virus genotype 1b, UniProt P26663).
T1 construct: 100 nM, 1b (BK) NS5BΔ21
Put plainly: HCV Polymerase Inhibition Assay. The data set is classed as biochemical. On the procedure: HCV polymerase reactions were carried out using a modified method of Howe et al., Antimicrobial Agents and Chemotherapy 2004 48(12): 4813-4821. Reactions contained a final concentration of, 0.5% DMSO, 100 nM, 1b (BK) NS5BΔ21, 20 mM Tris-HCl pH 7.5, 5 mM MgCl2, 5 mM MnCl2, 3 mM DTT, 0.05% BSA, 0.2 U/μL RNasin, 10 μg/mL Poly(rC) template, GTP (at Km) and 0.05 μCi/μL ^33P-GTP in a total reaction volume of 50 μL. Compounds were tested in a three fold dilution series, for example starting from 50 μM. Reactions were initiated with the addition of GTP and terminated after 90 min with 50 μL ice cold 0.2 M EDTA. Terminated reactions were transferred to DEAE 96-well filter plates, unincorporated nucleotides washed from the filters and 50 μL scintillation fluid added prior to reading on a scintillation counter. The compound concentration that reduced ^33P-GTP incorporation by 50% (IC50) was calculated using non-linear regression.

Data set [4] has as its system subgenomic genotype 1a (H77) replicon cell line. Kind of data set: HCV replicon assay, genotype 1a (Renilla luciferase). The data set is classed as cell-based. The conditions noted are these: Hepatitis C virus; genotype 1a replicon; read-out: G1a (EC50 μM). As to the method:
as §1, §2, §3

A short description of data set [5]: Aqueous solubility (laser nephelometry). In kind it is physicochemical. The conditions noted are these: aqueous assay buffer with 1% DMSO, kinetic from dmso stock, 30 minute incubation at 25° C. On the procedure: Test compounds prepared in DMSO were screened in duplicate over a range of concentrations (1.6-100 ug/mL) in different aqueous media (for example a pH6.5 buffers which are relevant to the stomach and upper regions of the small intestine and therefore important when predicting the amount of drug likely to be in solution following oral administration). Test compounds were serially diluted in 100% DMSO ranging from 10-0.16 mg/mL. These titrated DMSO stocks were then further diluted 1:100 with assay buffer and added to test plates (UV Star Griener 384 well plates), maintaining the DMSO concentration at 1%.

[6] abbreviates: 72 hours, read-out: genotype 1b EC50 (μM) range.
[7] abbreviates: 1b polymerase IC50 (μM) range, genotype 1b NS5B, 33P-GTP incorporation.
The mark [8] stands for this setting: NS5B G1b (IC50 μM), genotype 1b polymerase.
[9] abbreviates: aqueous buffer, pH 6.5, 1% DMSO, read-out: Solubility pH 6.5.
The mark [10] stands for this setting: simulated gastric fluid, pH 2, 1% DMSO, read-out: Solubility pH 2.

Values after ≈ are worked out from the molar mass of the structure shown. Where two headings read alike, the source gives them in different places.

T1 sequence (P26663 2420-2989, stated change not applied): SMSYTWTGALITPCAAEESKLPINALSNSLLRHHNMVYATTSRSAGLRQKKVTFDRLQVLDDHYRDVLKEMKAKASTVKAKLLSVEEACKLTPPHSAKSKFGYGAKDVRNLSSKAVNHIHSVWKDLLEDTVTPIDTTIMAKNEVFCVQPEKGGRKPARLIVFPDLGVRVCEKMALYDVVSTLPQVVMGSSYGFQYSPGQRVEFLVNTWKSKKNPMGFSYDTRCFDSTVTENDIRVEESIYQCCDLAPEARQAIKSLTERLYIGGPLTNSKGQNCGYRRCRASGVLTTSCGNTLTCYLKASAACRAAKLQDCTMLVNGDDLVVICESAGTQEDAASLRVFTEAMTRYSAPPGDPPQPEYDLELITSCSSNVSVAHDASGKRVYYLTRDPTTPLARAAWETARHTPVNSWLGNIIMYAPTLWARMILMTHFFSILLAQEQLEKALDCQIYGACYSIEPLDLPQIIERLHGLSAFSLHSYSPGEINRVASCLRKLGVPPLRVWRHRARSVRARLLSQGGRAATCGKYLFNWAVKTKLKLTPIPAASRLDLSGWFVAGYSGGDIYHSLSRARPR

`CNC(=O)c1c2cc(C3CC3)c(N(C)S(C)(=O)=O)cc2nn1-c1ccc(Cl)cn1` [Compound 9, 2-(5-chloropyridin-2-yl)-5-cyclopropyl-N-methyl-6-[methyl(methylsulfonyl)amino]-2H-indazole-3-carboxamide]: in data set [1], the CC50 at 3 days is above 50 µM. The EC50 was 0.055 µM in data set [2], below 0.1 µM in data set [3] (setting [6]), 0.008 µM in data set [3] (read-out: G1b (EC50 μM)) and 0.031 µM in data set [4]. Besides, the IC50 against 1b (BK) NS5BΔ21 (setting [7]) is below 0.1 µM; on 1b (BK) NS5BΔ21 (setting [8]), 0.054 µM.

With `CNC(=O)c1c2cc(C3CC3)c(N(C)S(C)(=O)=O)cc2nn1-c1ncc(C)s1` [Compound 13, 5-cyclopropyl-N-methyl-6-[methyl(methylsulfonyl)amino]-2-(5-methylthiazol-2-yl)indazole-3-carboxamide], the EC50 in data set [3] (setting [6]) was 0.1 to 0.49 µM.

Consider `CNC(=O)c1c2cc(C3CC3)c(N(C)S(C)(=O)=O)cc2nn1-c1cc(C)c(Cl)cn1` [Compound 15, 2-(5-chloro-4-methyl-2-pyridyl)-5-cyclopropyl-N-methyl-6-[methyl(methylsulfonyl)amino]indazole-3-carboxamide], for which, in data set [3] (setting [6]), the EC50 was 0.1 to 0.49 µM.

Turning to `CNC(=O)c1c2cc(C3CC3)c(N(CCC3CN(C(C)=O)C3)S(C)(=O)=O)cc2nn1-c1ccc(C)cn1` [Compound 17, 6-[2-(1-acetylazetidin-3-yl)ethyl-methylsulfonyl-amino]-5-cyclopropyl-N-methyl-2-(5-methyl-2-pyridyl)indazole-3-carboxamide], the EC50 in data set [3] (setting [6]) was in the range of 0.1 to 0.49 µM. On 1b (BK) NS5BΔ21 (setting [7]), this compound gave an IC50 of 0.5 to 0.99 µM. The solubility at 30 min in data set [5] (setting [9]) is above 100 µg/mL; in data set [5] (setting [10]) it was 50 to 100 µg/mL (≈ 95.3 to 191 µM).

As for `CNC(=O)c1c2cc(C3CC3)c(N(CCC3CN(C(=O)OC(C)(C)C)C3)S(C)(=O)=O)cc2nn1-c1ccc(C)cn1` [Compound 16, tert-butyl 3-[2-[[5-cyclopropyl-3-(methylcarbamoyl)-2-(5-methyl-2-pyridyl)indazol-6-yl]-methylsulfonyl-amino]ethyl]azetidine-1-carboxylate], the EC50 in data set [3] (setting [6]) was below 0.1 µM. On 1b (BK) NS5BΔ21 (setting [7]), this compound returned an IC50 of 1 to 10 µM.

With `CNC(=O)c1c2cc(C3CC3)c(N(CCC3(OC)COC3)S(C)(=O)=O)cc2nn1-c1ccc(C)cn1` [Compound 18, 5-cyclopropyl-6-[2-(3-methoxyoxetan-3-yl)ethyl-methylsulfonyl-amino]-N-methyl-2-(5-methyl-2-pyridyl)indazole-3-carboxamide], the CC50 at 3 days in data set [1] was above 50 µM. Also, the EC50 in data set [2] is 0.305 µM; in data set [3] (setting [6]), below 0.1 µM; in data set [3] (read-out: G1b (EC50 μM)), 0.056 µM; in data set [4], 0.031 µM. Further, the values for the IC50 at 1b (BK) NS5BΔ21 (setting [7]) and against 1b (BK) NS5BΔ21 (setting [8]) were 0.1 to 0.49 µM and 0.188 µM, respectively.

For the compound `CNC(=O)c1c2cc(C3CC3)c(N(CCF)S(C)(=O)=O)cc2nn1-c1ccc(C)cn1` [Compound 7, 5-cyclopropyl-6-[(2-fluoroethyl)(methylsulfonyl)amino]-N-methyl-2-(5-methylpyridin-2-yl)-2H-indazole-3-carboxamide], the half-maximal effective concentration (EC50) in data set [3] (setting [6]) was below 0.1 µM. This compound gave an IC50 against 1b (BK) NS5BΔ21 (setting [7]) of 0.5 to 0.99 µM.

In the case of `CNC(=O)c1c2cc(C3CC3)c(N(C)S(C)(=O)=O)cc2nn1-c1ccc(C)cn1` [Compound 6, 5-cyclopropyl-N-methyl-6-[methyl(methylsulfonyl)amino]-2-(5-methylpyridin-2-yl)-2H-indazole-3-carboxamide], the CC50 at 3 days in data set [1] is above 50 µM. Moreover, the EC50 was 0.024 µM in data set [2], below 0.1 µM in data set [3] (setting [6]), 0.004 µM in data set [3] (read-out: G1b (EC50 μM)) and 0.044 µM in data set [4]. The IC50 at 1b (BK) NS5BΔ21 (setting [7]) was 0.1 to 0.49 µM; against 1b (BK) NS5BΔ21 (setting [8]), 0.31 µM.

With `CNC(=O)c1c2cc(C3CC3)c(N(C)S(C)(=O)=O)cc2nn1-c1ccccn1` [Compound 14, 5-cyclopropyl-N-methyl-6-[methyl(methylsulfonyl)amino]-2-(2-pyridyl)indazole-3-carboxamide], the EC50 in data set [3] (setting [6]) was 0.1 to 0.49 µM.

Turning to `CNC(=O)c1c2cc(C3CC3)c(N(CCC3COC3)S(C)(=O)=O)cc2nn1-c1ccc(C)cn1` [Compound 4, 5-cyclopropyl-N-methyl-2-(5-methylpyridin-2-yl)-6-{(methylsulfonyl)[2-(oxetan-3-yl)ethyl]amino}-2H-indazole-3-carboxamide], the CC50 at 3 days in data set [1] was above 50 µM. Besides, the EC50 in data set [2] is 0.293 µM; in data set [3] (setting [6]), below 0.1 µM; in data set [3] (read-out: G1b (EC50 μM)), 0.054 µM; in data set [4], 0.035 µM. Besides, the IC50 at 1b (BK) NS5BΔ21 (setting [7]) was 0.1 to 0.49 µM; against 1b (BK) NS5BΔ21 (setting [8]) it was 0.388 µM.

With `CCN(c1cc2nn(-c3ccc(Cl)cn3)c(C(=O)NC)c2cc1C1CC1)S(C)(=O)=O` [Compound 8, 2-(5-chloropyridin-2-yl)-5-cyclopropyl-6-[ethyl(methylsulfonyl)amino]-N-methyl-2H-indazole-3-carboxamide], the CC50 at 3 days in data set [1] is above 50 µM. In addition, the EC50 in data set [2] is 0.04 µM; in data set [3] (setting [6]), below 0.1 µM; in data set [3] (read-out: G1b (EC50 μM)), 0.009 µM; in data set [4] it was 0.016 µM. Besides, the half-inhibitory concentration (IC50) at 1b (BK) NS5BΔ21 (setting [7]) is below 0.1 µM; against 1b (BK) NS5BΔ21 (setting [8]) it was 0.091 µM.

With `CNC(=O)c1c2cc(C3CC3)c(N(CC(F)F)S(C)(=O)=O)cc2nn1-c1ccc(C)cn1` [Compound 3, 5-cyclopropyl-6-[(2,2-difluoroethyl)(methylsulfonyl)amino]-N-methyl-2-(5-methylpyridin-2-yl)-2H-indazole-3-carboxamide], the EC50 in data set [3] (setting [6]) is below 0.1 µM. Moreover, at 1b (BK) NS5BΔ21 (setting [7]), the IC50 lay within 0.5 to 0.99 µM. The solubility at 30 min in data set [5] (setting [9]) and in data set [5] (setting [10]) was 50 to 100 µg/mL (≈ 108 to 216 µM) in each case.

In the case of `CNC(=O)c1c2cc(C3CC3)c(N(CCC3COC3C)S(C)(=O)=O)cc2nn1-c1ccc(C)cn1` (stereo not drawn) [Compound 10, 5-cyclopropyl-N-methyl-6-{[2-(2-methyloxetan-3-yl)ethyl](methylsulfonyl)amino}-2-(5-methylpyridin-2-yl)-2H-indazole-3-carboxamide], the EC50 in data set [3] (setting [6]) is below 0.1 µM. For the same compound, the IC50 on 1b (BK) NS5BΔ21 (setting [7]) lay within 0.5 to 0.99 µM.

As to `CNC(=O)c1c2cc(C3CC3)c(N(CCC3COC3)S(C)(=O)=O)cc2nn1-c1ccc(Cl)cn1` [Compound 19, 2-(5-chloro-2-pyridyl)-5-cyclopropyl-N-methyl-6-[methylsulfonyl-[2-(oxetan-3-yl)ethyl]amino]indazole-3-carboxamide], in data set [1], the CC50 at 3 days was above 50 µM. Besides, the EC50 in data set [2] was 0.019 µM; in data set [3] (setting [6]) it was below 0.1 µM; in data set [3] (read-out: G1b (EC50 μM)), 0.021 µM; in data set [4] it was 0.011 µM. Moreover, the IC50 was 0.1 to 0.49 µM against 1b (BK) NS5BΔ21 (setting [7]) and 0.131 µM against 1b (BK) NS5BΔ21 (setting [8]).

Consider `CNC(=O)c1c2cc(C3CC3)c(N(CCO)S(C)(=O)=O)cc2nn1-c1ccc(C)cn1` [Compound 2, 5-cyclopropyl-6-[(2-hydroxyethyl)(methylsulfonyl)amino]-N-methyl-2-(5-methylpyridin-2-yl)-2H-indazole-3-carboxamide], for which the EC50 in data set [3] (setting [6]) lay in the range of 0.1 to 0.49 µM. At 1b (BK) NS5BΔ21 (setting [7]), the IC50 lay within 1 to 10 µM. Further, the solubility at 30 min in data set [5] (setting [9]) is above 100 µg/mL; in data set [5] (setting [10]) it was 50 to 100 µg/mL (≈ 113 to 225 µM).

The CC50 is the concentration at which the toxic effect on the cells reaches its halfway point. For orientation: EC50 means the concentration at which the effect is half-maximal. A word on the IC50: it is the concentration needed to halve the response being measured. Lower therefore signals greater potency in that assay. By solubility is commonly meant the dissolved amount per volume that the medium holds.
